In publication PMC8178126, “Evaluation of the available cholesterol concentration in the inner leaflet of the plasma membrane of mammalian cells” (Journal of Lipid Research, 2021):

Molecular target: T1, Osh4-Δ1-40 (template of Osh4-Δ1-40(K109A) and eOsh4) (Saccharomyces cerevisiae, UniProt P35844, K109A)
T1 construct: gene KES1; N-terminal lid (aa 1-40) removed; pET-30a, N- and C-terminal His6 tags (printed for eOsh4), E. coli BL21 RIL codon plus
Test: SPR (BIACORE X-100, L1 chip, immobilised LUVs, equilibrium Req)
Format: binding
Conditions: apparent, 20 mM Tris pH 7.4, 0.16 M NaCl, 23 °C

Structure (SMILES)	Kd (protein concentration at half-maximal binding to POPC/POPS/25HC 75:20:5 LUVs (Fig. 3D legend 77:20:5)) [nM]	Kd (protein concentration at half-maximal binding to POPC/POPS/cholesterol 75:20:5 LUVs (Fig. 3D legend 77:20:5)) [nM]
C[C@H](CCCC(C)(C)O)[C@H]1CC[C@H]2[C@@H]3CC=C4C[C@@H](O)CC[C@]4(C)[C@H]3CC[C@]12C [25-hydroxycholesterol]	800 ± 130	
CC(C)CCC[C@@H](C)[C@H]1CC[C@H]2[C@@H]3CC=C4C[C@@H](O)CC[C@]4(C)[C@H]3CC[C@]12C [cholesterol]		100 ± 16
